Laboratory results published in PMC3693846 (Cellular and molecular neurobiology, 2013).

Tested on: L-type voltage-gated calcium channel (subtype not resolved)
Type: cell-based

CC(C)n1cnc2c(NCCCCCCNC(=O)OC(C)(C)C)nc(NCCO)nc21 [CK59, 2-(2-Hydroxyethylamino)-6-aminohexylcarbamic acid tert-butyl ester-9-isopropylpurine]
% decrease of current at 50 μM: 67.47 % decrease of current at 50 μM
